Like-named read-outs stand apart in the source and are kept apart here.
Tests used:
[1] = molecular target: T1, native human GLUT5 (Homo sapiens, UniProt P22732); assay: […]-fructose uptake in MCF7 cells, Dixon plot; type: cell-based; details: competitive with fructose; 50 μM cytochalasin B present to block GLUT2; 3-20 mM fructose; 2 min; 22 °C
T1 construct: gene SLC2A5; native full-length transporter in MCF7 breast cancer cells
T1 sequence (P22732 1-501): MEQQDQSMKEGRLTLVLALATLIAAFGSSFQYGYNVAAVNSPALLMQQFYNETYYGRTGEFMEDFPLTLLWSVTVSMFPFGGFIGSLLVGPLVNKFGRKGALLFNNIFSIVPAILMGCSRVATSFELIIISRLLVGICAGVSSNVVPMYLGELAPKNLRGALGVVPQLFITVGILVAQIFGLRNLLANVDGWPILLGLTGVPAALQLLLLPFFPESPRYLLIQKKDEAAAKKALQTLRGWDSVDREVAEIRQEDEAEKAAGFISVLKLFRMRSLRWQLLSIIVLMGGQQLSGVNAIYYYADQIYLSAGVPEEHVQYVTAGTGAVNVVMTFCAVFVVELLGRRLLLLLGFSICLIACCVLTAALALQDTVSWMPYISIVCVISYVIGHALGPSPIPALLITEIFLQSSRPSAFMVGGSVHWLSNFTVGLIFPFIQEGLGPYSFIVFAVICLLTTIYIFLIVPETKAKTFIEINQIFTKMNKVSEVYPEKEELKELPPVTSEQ

[2] = molecular target: T2, GlcPSe (Staphylococcus epidermidis, UniProt A0A0H2VG78, F348H); assay: biochemical; details: read-out: % inhibition at 2 mM
T2 construct: gene glcP

[3] = molecular target: T3, GLUT1 (Homo sapiens, UniProt P11166); assay: […]-glucose entrance counter-flow in proteoliposomes; type: biochemical; details: 10 μM 14C-glucose outside, 200 mM glucose inside; pH 7.5; 1 min; labelled compound
T3 construct: gene SLC2A1; full length, N-terminal His6 tag, Sf21 insect cells, purified in DDM, reconstituted in proteoliposomes
T3 sequence (P11166 1-492): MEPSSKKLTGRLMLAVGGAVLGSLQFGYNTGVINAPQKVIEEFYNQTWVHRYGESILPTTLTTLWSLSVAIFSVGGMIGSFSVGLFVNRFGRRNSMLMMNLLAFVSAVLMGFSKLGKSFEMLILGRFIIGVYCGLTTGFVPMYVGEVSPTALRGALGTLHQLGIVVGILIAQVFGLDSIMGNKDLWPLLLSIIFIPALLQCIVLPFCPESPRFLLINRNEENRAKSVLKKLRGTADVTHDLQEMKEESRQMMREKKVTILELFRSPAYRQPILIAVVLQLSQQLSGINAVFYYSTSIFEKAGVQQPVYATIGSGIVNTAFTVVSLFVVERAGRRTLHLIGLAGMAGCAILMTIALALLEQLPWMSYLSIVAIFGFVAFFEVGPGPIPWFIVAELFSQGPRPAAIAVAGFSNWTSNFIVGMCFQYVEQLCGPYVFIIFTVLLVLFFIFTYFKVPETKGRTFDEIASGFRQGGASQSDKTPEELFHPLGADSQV

[4] = molecular target: T4, GLUT3 (Homo sapiens, UniProt P11169); assay: as above; type: biochemical; details: 10 μM 14C-glucose outside, 200 mM glucose inside; pH 7.5; 1 min; labelled compound
T4 construct: gene SLC2A3; full length, N-terminal His6 tag, Sf21 insect cells, purified in DDM, reconstituted in proteoliposomes
T4 sequence (P11169 1-496): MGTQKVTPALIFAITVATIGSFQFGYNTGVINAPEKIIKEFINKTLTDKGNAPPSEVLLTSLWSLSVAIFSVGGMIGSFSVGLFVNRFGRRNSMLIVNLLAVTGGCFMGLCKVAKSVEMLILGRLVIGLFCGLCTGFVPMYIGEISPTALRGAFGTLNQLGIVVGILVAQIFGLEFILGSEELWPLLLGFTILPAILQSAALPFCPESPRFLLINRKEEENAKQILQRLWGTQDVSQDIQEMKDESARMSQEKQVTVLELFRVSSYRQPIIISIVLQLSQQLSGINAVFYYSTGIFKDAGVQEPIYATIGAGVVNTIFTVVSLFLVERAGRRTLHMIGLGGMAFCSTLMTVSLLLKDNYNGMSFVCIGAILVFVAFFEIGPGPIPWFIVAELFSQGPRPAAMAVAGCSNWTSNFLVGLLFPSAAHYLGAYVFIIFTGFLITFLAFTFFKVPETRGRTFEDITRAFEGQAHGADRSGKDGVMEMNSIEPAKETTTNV

[5] = molecular target: T5, GLUT4 (Homo sapiens, UniProt P14672); assay: as above; type: biochemical; details: 10 μM 14C-glucose outside, 200 mM glucose inside; pH 7.5; 1 min; labelled compound
T5 construct: gene SLC2A4; full length, N-terminal His6 tag, Sf21 insect cells, purified in DDM, reconstituted in proteoliposomes
T5 sequence (P14672 1-509): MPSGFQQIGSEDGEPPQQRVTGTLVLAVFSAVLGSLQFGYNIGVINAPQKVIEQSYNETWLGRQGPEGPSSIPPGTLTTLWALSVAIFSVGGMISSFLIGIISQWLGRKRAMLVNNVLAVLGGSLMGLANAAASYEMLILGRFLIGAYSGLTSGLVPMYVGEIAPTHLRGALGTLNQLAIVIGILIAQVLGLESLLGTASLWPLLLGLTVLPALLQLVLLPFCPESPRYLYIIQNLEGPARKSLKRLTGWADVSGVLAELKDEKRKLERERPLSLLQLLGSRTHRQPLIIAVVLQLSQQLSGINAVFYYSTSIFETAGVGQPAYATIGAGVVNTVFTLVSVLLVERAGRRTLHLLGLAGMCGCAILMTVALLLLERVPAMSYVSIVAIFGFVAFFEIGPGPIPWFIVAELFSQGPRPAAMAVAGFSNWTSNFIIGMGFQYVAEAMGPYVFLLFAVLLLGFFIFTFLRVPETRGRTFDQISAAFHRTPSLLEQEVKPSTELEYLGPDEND

[6] = molecular target: T6, GLUT2 (Homo sapiens, UniProt P11168); assay: as above; type: biochemical; details: 10 μM 14C-glucose outside, 200 mM glucose inside; pH 7.5; 1 min; labelled compound
T6 construct: gene SLC2A2; full length, N-terminal His6 tag, Sf21 insect cells, purified in DDM, reconstituted in proteoliposomes
T6 sequence (P11168 1-524): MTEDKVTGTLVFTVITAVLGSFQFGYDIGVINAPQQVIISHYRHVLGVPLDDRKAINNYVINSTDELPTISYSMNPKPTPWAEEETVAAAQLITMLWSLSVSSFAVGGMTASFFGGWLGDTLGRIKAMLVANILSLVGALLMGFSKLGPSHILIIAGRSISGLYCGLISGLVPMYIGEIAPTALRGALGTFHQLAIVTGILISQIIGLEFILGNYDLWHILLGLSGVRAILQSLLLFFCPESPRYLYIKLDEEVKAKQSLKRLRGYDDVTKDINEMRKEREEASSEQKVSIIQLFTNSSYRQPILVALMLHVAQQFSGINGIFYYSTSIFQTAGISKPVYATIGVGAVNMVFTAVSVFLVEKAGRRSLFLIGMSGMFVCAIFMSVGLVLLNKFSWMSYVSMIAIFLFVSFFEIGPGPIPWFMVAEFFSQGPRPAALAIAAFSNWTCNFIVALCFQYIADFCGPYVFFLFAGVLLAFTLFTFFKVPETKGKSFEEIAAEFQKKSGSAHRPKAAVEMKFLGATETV

[7] = molecular target: T3, GLUT1; assay: as above; type: biochemical
[8] = molecular target: T6, GLUT2; assay: […]-fructose entrance counter-flow in proteoliposomes; type: biochemical; details: 10 μM 14C-fructose outside, 200 mM fructose inside; pH 7.5; 1 min; labelled compound

T2 sequence (A0A0H2VG78 whole entry F348H): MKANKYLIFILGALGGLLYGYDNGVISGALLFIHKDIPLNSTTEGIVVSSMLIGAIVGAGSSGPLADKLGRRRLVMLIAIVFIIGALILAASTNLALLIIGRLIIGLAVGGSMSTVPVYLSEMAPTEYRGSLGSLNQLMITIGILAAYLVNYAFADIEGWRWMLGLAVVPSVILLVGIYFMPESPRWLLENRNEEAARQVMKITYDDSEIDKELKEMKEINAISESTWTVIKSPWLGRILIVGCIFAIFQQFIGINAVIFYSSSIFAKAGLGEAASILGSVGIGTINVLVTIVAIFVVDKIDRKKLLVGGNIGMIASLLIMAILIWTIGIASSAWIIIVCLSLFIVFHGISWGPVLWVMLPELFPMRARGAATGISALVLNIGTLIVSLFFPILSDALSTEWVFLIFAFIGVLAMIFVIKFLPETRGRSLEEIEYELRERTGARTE

CS(=O)(=O)c1ccc(Nc2ccc3c(c2)OCO3)c([N+](=O)[O-])c1 [MSNBA, N-[4-(methylsulfonyl)-2-nitrophenyl]-1,3-benzodioxol-5-amine] gave a Ki [1] of 3.2 ± 0.4 µM and an inhibition at 2000 µM [2] of 75%.
OC[C@H]1OC(O)[C@H](O)[C@@H](O)[C@@H]1O (stereo partly drawn) [glucose] was tested, and the “14C-glucose entrance counter-flow in proteoliposomes” value (shortened to “14C-glucose entrance counter-flow”) [3] was “Glucose transport of GLUT1, GLUT2, GLUT3 and GLUT4”, the “14C-glucose entrance counter-flow” value [4] was “Glucose transport of GLUT1, GLUT2, GLUT3 and GLUT4” and the “14C-glucose entrance counter-flow” value [5] was “Glucose transport of GLUT1, GLUT2, GLUT3 and GLUT4”. The “14C-glucose entrance counter-flow” value [6] was “Glucose transport of GLUT1, GLUT2, GLUT3 and GLUT4”.
O=C(CCc1ccc(O)cc1)c1c(O)cc(O)cc1O [phloretin] was tested, and the “% inhibition at 2 mM” value [7] was “Effect of common GLUT1 inhibitors on the relative transport activity of GLUT5, GLUT1 and GlcPSe”.
With OCC1(O)OC[C@@H](O)[C@@H](O)[C@@H]1O (stereo partly drawn) [fructose] the “14C-fructose entrance counter-flow in proteoliposomes” value [8] was “fructose transport of GLUT2 were assayed by the entrance counter-flow method in proteoliposomes”.
For C=C1[C@@H](C)[C@H]2[C@H](Cc3ccccc3)NC(=O)[C@]23OC(=O)/C=C/[C@H](O)CCC[C@@H](C)C/C=C/[C@H]3[C@@H]1O [cytochalasin B], the “% inhibition at 2 mM” value ([7]; 10 μM 14C-glucose outside, 200 mM glucose inside, pH 7.5, 1 min) was “Effect of common GLUT1 inhibitors on the relative transport activity of GLUT5, GLUT1 and GlcPSe”.
